In patent US20120196935A1, “METHODS FOR DETECTING AUTODIGESTION” (THE REGENTS OF THE UNIVERSITY OF CALIFORNIA, priority 2009, published 2012):

System: experimental rats in hemorrhagic shock
Experiment: hemorrhagic shock in rats with blockage of digestive enzymes in the lumen of the intestine
Type: in vivo
Conditions: hemorrhagic shock (two hour reduction of blood pressure), inhibitor infused into the lumen of the intestine
Text: Fetid organic material was released from animals subject to autodigestion by pancreatic enzymes, but not from those that were not subject to autodigestion. Non-surviving animals uniformly released fetid organic material, while survivors produced dramatically lower levels. For example, animals with blockage of digestive enzymes in the lumen of the intestine (by infusion of pancreatic serine protease inhibitors, such as cyclokapron) in hemorrhagic shock had lower levels of substances such as putrescine, cadaverine, methional, and transthyretin.

`NC[C@H]1CC[C@H](C(=O)O)CC1` [cyclokapron] was tested, and the “levels of substances such as putrescine, cadaverine, methional, and transthyretin” value was “lower levels”.
